Assay results from US6583127B1, “Use of etherlysophospholipids as antiinflammatory agents” (Inkeysa. SA, priority 1998, dated 2003).
Read-outs that look alike come from different tables or passages of the source.

What was measured:
HLA = conditions: human neutrophils, Medium = 100
Method: Isolation and treatment of neutrophils. Human neutrophils were obtained from fresh peripheral blood by dextran sedimentation and centrifugation on Ficoll-Hypaque followed by hypotonic lysis of residual erythrocytes. […] Cells were resuspended at 3×10^6 neutrophils/ml in HEPES/glucose buffer (150 mM NaCl, 5 mM KCl, 10 mM HEPES, 1.2 mM MgCl2, 1.3 mM CaCl2, 5.5 mM glucose, pH 7.5), and incubated in the absence or presence of distinct agents at 37° C. for the times indicated in the respective legends to figures. Subsequently, cells were pelleted by centrifugation and saved to determine the content of different cell surface antigens by flow cytometry.
Monoclonal antibodies. The following monoclonal antibodies were used: TS1/11 anti-CD11a, Bear-1 anti-CD11b, TP1/36.1 anti-CD43, HP2/9 anti-CD44, Leu-8 anti-L-selectin, and W6/32, specific for a monomorphic determinant on HLA-A, B molecules. P3X63 myeloma culture supernatant was used as a negative control. The antibodies are commercially available.
Immunofluorescence flow cytometry. Immunofluorescence flow cytometry analysis was performed in a FACStar-Plus and a FACScan flow cytometers (Becton-Dickinson). Neutrophils were incubated at 4° C. with the corresponding monoclonal antibody followed by washing and labelling with a fluorescein isothiocyanate (FITC)-labelled-goat anti-mouse IgG antibody (DAKO, Glostrup, Denmark). Mean fluorescence intensity (MFI) in linear scale was obtained from at least 7000 cells in each sample, and the fluorescence produced by the myeloma P3X63 supernatant was considered as background. Results were expressed as relative MFI (rMFI), such that
(§1) rMFI=(MFIagent×100)/MFImedium
(§2) Background fluorescence was substracted from all values.

CD43 = experiment: Cell surface expression of CD43 in human neutrophils (immunofluorescence flow cytometry); assay type: cell-based; conditions: Medium = 100
Text: (§3) Isolation and treatment of neutrophils.
(§4) Monoclonal antibodies. […] The antibodies are commercially available.
(§5) Immunofluorescence flow cytometry. […] Results were expressed as relative MFI (rMFI), such that
as §1, §2

cytosolic PLA2 = experiment: Semiquantitative RT-PCR of cytosolic PLA2 expression in HL-60 cells; assay type: cell-based, human; conditions: HL-60 cells (FIG. 9)
Method: Cell culture. Human promyelocytic HL-60 cells and promonocytic U937 cells were grown in RPMI-1640 culture medium supplemented with 10% (v/v) heat-inactivated fetal calf serum, 2 mM L-glutamine, 100 units/ml penicillin and 24 μg/ml gentamicin. Mouse 3T3 fibroblasts were grown in Dulbecco's modified Eagle's medium (DMEM) supplemented with 10% (v/v) heat-inactivated fetal calf serum, 2 mM L-glutamine, 100 units/ml penicillin and 24 μg/ml gentamicin. Cells were incubated at 37° C. in a humidified atmosphere at 5% CO2 and 95% air.
Reverse transcriptase polymerase chain reaction (RT-PCR). Total RNA was extracted from human neutrophils and cell lines using TRIZOL reagent (GIBCO-BRL) following the manufacturer's instructions. RNA preparations were carefully checked by gel electrophoresis and found to be free of DNA contamination. For the RT reaction, total RNA (10 μg) was primed with oligo-dt and reverse-transcribed into cDNA with 30 units of M-MLV reverse transcriptase from Promega according to manufacturer's instructions in a final volume of 20 μL. The mixture was incubated at 37° C. for 90 min. The generated cDNA was used for the semi-quantitative RT-PCR and the β-actin gene was used as an internal control. […]

CD11a = experiment: Cell surface expression of CD11a in human neutrophils (immunofluorescence flow cytometry); assay type: cell-based; conditions: Medium = 100
Text: as §3, §4, §5, §1, §2

L-selectin (CD62L) = experiment: Cell surface expression of L-selectin in human neutrophils (immunofluorescence flow cytometry); assay type: cell-based; conditions: for L-Selectin cell surface expression (rMFI): Medium = 100
Text: as §3, §4, §5, §1, §2

SMILES: CCCCCCCCCCCCCCCCCCOCC(COP(=O)([O-])OCC[N+](C)(C)C)OC (centres unmarked) [IEC01, Edelfosine]
- HLA cell surface expression (rMFI) (HLA; 10 ng/ml): 101 ± 5
- HLA cell surface expression (rMFI) (HLA; 100 ng/ml): 100 ± 4
- HLA cell surface expression (rMFI) (HLA; 500 ng/ml): 99 ± 5
- HLA cell surface expression (rMFI) (HLA; 1 μg/ml): 102 ± 6
- HLA cell surface expression (rMFI) (HLA; 5 μg/ml): 101 ± 5
- CD43 cell surface expression (rMFI) (CD43; 10 ng/ml): 87.5 ± 2.5
- CD43 cell surface expression (rMFI) (CD43; 100 ng/ml): 63 ± 8
- CD43 cell surface expression (rMFI) (CD43; 500 ng/ml): 53 ± 5
- CD43 cell surface expression (rMFI) (CD43; 1 μg/ml): 33 ± 8
- CD43 cell surface expression (rMFI) (CD43; 5 μg/ml): 28 ± 7
- mRNA expression of cytosolic PLA2 (cytosolic PLA2): did not affect
- CD11a cell surface expression (rMFI) (CD11a; 10 ng/ml): 99 ± 3
- CD11a cell surface expression (rMFI) (CD11a; 100 ng/ml): 102 ± 5
- CD11a cell surface expression (rMFI) (CD11a; 500 ng/ml): 97 ± 8
- CD11a cell surface expression (rMFI) (CD11a; 1 μg/ml): 101 ± 6
- CD11a cell surface expression (rMFI) (CD11a; 5 μg/ml): 96 ± 5
- times more effective than aceclofenac in promoting L-selectin down-regulation (L-selectin (CD62L); after correcting for the different molecular weights): 100 times
- IC50 (L-selectin (CD62L); converted from μg/ml values, read-out: IC50 for L-selectin down-regulation, corrected for molecular weight): 194 nM
- concentration at which L-selectin reduction reaches a maximum (L-selectin (CD62L); human neutrophils): 1 µg/mL
- IC50 for L-selectin down-regulation (L-selectin (CD62L); human neutrophils (FIG. 1)): about 0.1 μg/ml
- time for decrease in cell surface L-selectin content to reach a maximum (L-selectin (CD62L); human neutrophils (data not shown)): ≤ 5 min
- L-Selectin cell surface expression (rMFI) (L-selectin (CD62L); human neutrophils, 10 ng/ml): 83.5 ± 4
- L-Selectin cell surface expression (rMFI) (L-selectin (CD62L); human neutrophils, 100 ng/ml): 56 ± 6
- L-Selectin cell surface expression (rMFI) (L-selectin (CD62L); human neutrophils, 500 ng/ml): 35 ± 5.5
- L-Selectin cell surface expression (rMFI) (L-selectin (CD62L); human neutrophils, 1 μg/ml): 18 ± 6
- L-Selectin cell surface expression (rMFI) (L-selectin (CD62L); human neutrophils, 5 μg/ml): 22 ± 8
